From patent US8871767B2, “2-arylimidazo[1,2-B]pyridazine, 2-phenylimidazo[1,2-A]pyridine, and 2-phenylimidazo[1,2-A]pyrazine derivatives” (Hengrui (USA) Ltd., priority 2010, dated 2014) come the findings set out here.

Assay [1] has as its system Hedgehog pathway activation on 10T1/2/Smo#3 cells (C3H10T1/2 cells transfected with human Smoothened receptor). In words: Hedgehog pathway activation on 10T1/2/Smo#3 cells measured by ALP activity. It counts as cell-based. As to conditions: Mus musculus, C3H 10T1/2, 10T1/2/Smo#3 cells. In outline: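 Inhibition of alkaline phosphatase induction, read fluorometrically from 4-methylumbelliferyl phosphate conversion, gave IC50 values; CellTiter-Blue tracked viability in parallel. Cells were the human Smo-transfected 10T1/2/Smo#3 pool, stimulated by 10-20% hShh conditioned medium or the Smo agonist SAG (500 nM).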

In assay [2] the test system is Hedgehog pathway activation (GLi-luciferase reporter) in Shh Light II reporter cells. In words: Hedgehog pathway activation on Shh Light II reporter cells measured by luciferase activity. It counts as cell-based. As to conditions: Mus musculus, Shh Light II. In outline:
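Shh Light II reporter cells carrying a hedgehog-responsive GLi-luciferase reporter were stimulated either with 500 nM SAG, a direct Smoothened agonist, or with conditioned media containing human Sonic Hedgehog (hShh). Test compounds were evaluated for blocking this pathway activation, quantified by luciferase activity. Cell viability was monitored in parallel with the Celltiter-Blue® assay.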

[3] abbreviates: hShh activation, ALP activity, read-out: 10T1/2/Smo#3 ALP activity (hShh Activation).
Setting [4] is: measured by ALP activity, read-out: ALP (IC50, inhibition of Hedgehog pathway activation).
Setting [5] is: SAG activation (500 nM SAG), read-out: Shh Light II luciferase activity (SAG activation).
[6] abbreviates: hShh activation, read-out: Shh (IC50, inhibition of Hedgehog pathway activation).
Where [7] appears, read: hShh activation, read-out: Shh Light II luciferase activity (hShh activation).

Read-outs that look alike come from different tables or passages of the source. Where only a bound is given, the exact number is not on record here.

In the case of `Cc1ncc(-c2cn3nc(-c4ccccc4F)ccc3n2)cc1NC(=O)C(C)(C)C` [Example 390, N-(5-(6-(2-fluorophenyl)imidazo[1,2-b]pyridazin-2-yl)-2-methylpyridin-3-yl)pivalamide], the IC50 in assay [1] (setting [3]) was 300 to 3000 nM; in assay [1] (setting [4]), 469 nM; in assay [2] (setting [5]), 300 to 3000 nM; in assay [2] (setting [6]), 270 nM; in assay [2] (setting [7]), under 300 nM.

As to `CC(C)(C)C(=O)Nc1cc(-c2cn3nc(Oc4ccccc4F)ccc3n2)ccc1C(F)(F)F` [Example 195, N-(5-(6-(2-fluorophenoxy)imidazo[1,2-b]pyridazin-2-yl)-2-(trifluoromethyl)phenyl)pivalamide], the IC50 in assay [1] (setting [4]) was determined as 718 nM; in assay [2] (setting [6]), 267 nM.

Take `Cc1c(-c2ccccc2)nc2ccc(N3CCN(C(=O)CCc4ccccc4)CC3)nn12` [Example 156, 1-(4-(3-methyl-2-phenylimidazo[1,2-b]pyridazin-6-yl)piperazin-1-yl)-3-phenylpropan-1-one]: the figures for the IC50 in assay [1] (setting [4]) and in assay [2] (setting [6]) were 8840 nM and 3430 nM, respectively.

Consider `Cc1ccc(-c2cn3nc(N4CCN(Cc5ccc(F)cc5)CC4)ccc3n2)cc1NC(=O)C(C)(C)C` [Example 123, N-(5-(6-(4-(4-fluorobenzyl)piperazin-1-yl)imidazo[1,2-b]pyridazin-2-yl)-2-methylphenyl)pivalamide], for which the IC50 in assay [1] (setting [3]) was 300 to 3000 nM; in assay [1] (setting [4]), 488 nM; in assay [2] (setting [5]), 300 to 3000 nM; in assay [2] (setting [6]), 712 nM; in assay [2] (setting [7]), 300 to 3000 nM.

For the molecule `CC(C)(C)C(=O)Nc1cc(-c2cn3nc(-c4ccccc4F)ccc3n2)ccc1C(F)(F)F` [Example 171, N-(5-(6-(2-fluorophenyl)imidazo[1,2-b]pyridazin-2-yl)-2-(trifluoromethyl)phenyl)pivalamide], the IC50 in assay [1] (setting [4]) was determined as 221 nM; in assay [2] (setting [6]), 41 nM.

On to `CN(C)c1ncc(-c2ccc3nc(-c4ccc(C(F)(F)F)c(NC(=O)C(C)(C)C)c4)cn3n2)cn1` [Example 378, N-(5-(6-(2-(dimethylamino)pyrimidin-5-yl)imidazo[1,2-b]pyridazin-2-yl)-2-(trifluoromethyl)phenyl)pivalamide], for which the IC50 turned out to be 963 nM in assay [1] (setting [4]) and 1540 nM in assay [2] (setting [6]).

In the case of `CCOC(=O)COc1cccc(-c2ccc3nc(-c4ccc(C)c(NC(=O)C(C)(C)C)c4)cn3n2)c1C(F)(F)F` [Example 410, ethyl 2-(3-(2-(4-methyl-3-pivalamidophenyl)imidazo[1,2-b]pyridazin-6-yl)-2-(trifluoromethyl)phenoxy)acetate], the IC50 in assay [1] (setting [3]) was 300 to 3000 nM; in assay [1] (setting [4]), 403 nM; in assay [2] (setting [5]), 300 to 3000 nM; in assay [2] (setting [6]), 121 nM; in assay [2] (setting [7]) it was under 300 nM.

`COc1ccc2nc(-c3cc(NC(=O)CC(C)(C)C)ccc3Cl)cn2n1` [Example 117, N-(4-chloro-3-(6-methoxyimidazo[1,2-b]pyridazin-2-yl)phenyl)-3,3-dimethylbutanamide]: the IC50 in assay [1] (setting [3]) was 3000 to 30000 nM; in assay [1] (setting [4]), 6740 nM; in assay [2] (setting [5]), 3000 to 30000 nM; in assay [2] (setting [6]), 2800 nM; in assay [2] (setting [7]), 3000 to 30000 nM.

Consider `CC(C)(C(=O)Nc1cc(-c2cn3nc(-c4cccnc4C(F)(F)F)ccc3n2)c(F)cc1Cl)C(F)(F)F` [Example 660, N-(2-chloro-4-fluoro-5-(6-(2-(trifluoromethyl)pyridin-3-yl)imidazo[1,2-b]pyridazin-2-yl)phenyl)-3,3,3-trifluoro-2,2-dimethylpropanamide], for which the IC50 worked out at 17 nM in assay [1] (setting [4]) and 32 nM in assay [2] (setting [6]).

Take `Cc1ccc(-c2cn3nc(N4CCS(=O)(=O)CC4)ccc3n2)cc1NC(=O)C(C)(C)C` [Example 285, N-{5-[6-(1,1-dioxidothiomorpholin-4-yl)imidazo[1,2-b]pyridazin-2-yl]-2-methylphenyl}-2,2-dimethylpropanamide]: the IC50 in assay [1] (setting [4]) turned out to be 1010 nM; in assay [2] (setting [6]) it was 788 nM.

In the case of `Fc1ccc(CN2CCN(c3ccc4nc(-c5ccc(F)cc5)c(C5CC5)n4n3)CC2)cc1` [Example 167, 3-cyclopropyl-6-(4-(4-fluorobenzyl)piperazin-1-yl)-2-(4-fluorophenyl)imidazo[1,2-b]pyridazine], the IC50 in assay [1] (setting [4]) is over 10000 nM; in assay [2] (setting [6]) it was 2270 nM.

`CCOC(=O)CCCCCCOc1ccc(C(F)(F)F)c(-c2ccc3nc(-c4ccc(C)c(NC(=O)C(C)(C)C)c4)cn3n2)c1` [Example 425, ethyl 7-(3-(2-(4-methyl-3-pivalamidophenyl)imidazo[1,2-b]pyridazin-6-yl)-4-(trifluoromethyl)phenoxy)heptanoate]: the IC50 amounted to 239 nM in assay [1] (setting [4]) and 86 nM in assay [2] (setting [6]).

For the molecule `CC(C)(C)C(=O)Nc1cc(-c2cn3nc(OC4CCC(O)CC4)ccc3n2)ccc1C(F)(F)F` (stereo not shown) [Example 375, N-(5-(6-(4-hydroxycyclohexyloxy)imidazo[1,2-b]pyridazin-2-yl)-2-(trifluoromethyl)phenyl)pivalamide], the figures for the IC50 in assay [1] (setting [4]) and in assay [2] (setting [6]) were 372 nM and 316 nM, respectively.

Turning to `COC(=O)C=Cc1ccc(Cl)c(-c2ccc3nc(-c4ccc(C)c(NC(=O)C(C)(C)C)c4)cn3n2)c1` [compound 573], the values for the IC50 in assay [1] (setting [4]) and in assay [2] (setting [6]) were 1040 nM and 70 nM, respectively.

Regarding `CSc1ccc2nc(-c3ccc(C(F)(F)F)c(NC(=O)C(C)(C)C)c3)cn2n1` [Example 135, N-(5-(6-(methylthio)imidazo[1,2-b]pyridazin-2-yl)-2-(trifluoromethyl)phenyl)pivalamide], the IC50 in assay [1] (setting [4]) amounted to 5230 nM; in assay [2] (setting [6]), 1250 nM.

Turning to `Cc1cc(F)c(-c2cn3nc(-c4cccnc4C(F)(F)F)ccc3n2)cc1NC(=O)C(C)(C)C` [Example 649, N-(4-fluoro-2-methyl-5-(6-(2-(trifluoromethyl)pyridin-3-yl)imidazo[1,2-b]pyridazin-2-yl)phenyl)pivalamide], the results for the IC50 in assay [1] (setting [4]) and in assay [2] (setting [6]) were 50 nM and 80 nM, respectively.

Turning to `COc1ccc2nc(-c3ccc(C)c(NC(=O)C(C)(C)C)c3)c(Cl)n2n1` [Example 109, N-(5-(3-chloro-6-methoxyimidazo[1,2-b]pyridazin-2-yl)-2-methylphenyl)pivalamide], the IC50 in assay [1] (setting [3]) is 3000 to 30000 nM; in assay [1] (setting [4]), 7000 nM; in assay [2] (setting [5]) it was 3000 to 30000 nM; in assay [2] (setting [6]) it was 2650 nM; in assay [2] (setting [7]), 300 to 3000 nM.

`CC(C)CNc1ccc2nc(-c3ccc(C(F)(F)F)c(NC(=O)C(C)(C)C)c3)cn2n1` [Example 302, N-(5-(6-(isobutylamino)imidazo[1,2-b]pyridazin-2-yl)-2-(trifluoromethyl)phenyl)pivalamide]: the values for the IC50 in assay [1] (setting [4]) and in assay [2] (setting [6]) were 443 nM and 522 nM, respectively.

Take `CC(C)(C)C(=O)Nc1cc(-c2cn3nc(N4CCSCC4)ccc3n2)ccc1C(F)(F)F` [Example 355, N-(5-(6-thiomorpholinoimidazo[1,2-b]pyridazin-2-yl)-2-(trifluoromethyl)phenyl)pivalamide]: the IC50 in assay [1] (setting [4]) turned out to be 240 nM; in assay [2] (setting [6]), 142 nM.

For `Cc1c(-c2ccccc2)nc2ccc(N3CCN(Cc4ccc(F)cc4F)CC3)nn12` [Example 164, 6-(4-(2,4-difluorobenzyl)piperazin-1-yl)-3-methyl-2-phenylimidazo[1,2-b]pyridazine], the figures for the IC50 in assay [1] (setting [4]) and in assay [2] (setting [6]) were 550 nM and 463 nM, respectively.

`CCc1ccc(-c2cn3nc(-c4cccnc4C(F)(F)F)ccc3n2)cc1NC(=O)N1CC(F)(F)C1` [Example 695, N-(2-ethyl-5-(6-(2-(trifluoromethyl)pyridin-3-yl)imidazo[1,2-b]pyridazin-2-yl)phenyl)-3,3-difluoroazetidine-1-carboxamide]: the IC50 is 158 nM in assay [1] (setting [4]) and 368 nM in assay [2] (setting [6]).

Take `Cc1ccc(-c2cn3nc(NC(=O)c4cccc(C=CC(=O)NO)c4)ccc3n2)cc1NC(=O)C(C)(C)C` [compound 605]: the IC50 in assay [1] (setting [3]) was under 300 nM; in assay [1] (setting [4]) it was 62 nM; in assay [2] (setting [5]), under 300 nM; in assay [2] (setting [6]), 30 nM; in assay [2] (setting [7]), under 300 nM.

Turning to `Cc1ccc(-c2cn3nc(-c4cccnc4C(F)(F)F)ccc3n2)cc1NC(=O)C1CCCN1C` (stereo not shown) [Example 647, 1-methyl-N-(2-methyl-5-(6-(2-(trifluoromethyl)pyridin-3-yl)imidazo[1,2-b]pyridazin-2-yl)phenyl)pyrrolidine-2-carboxamide], the values for the IC50 in assay [1] (setting [4]) and in assay [2] (setting [6]) were 94 nM and 186 nM, respectively.

For the molecule `CCc1ccc(-c2cn3nc(-c4cccnc4C(F)(F)F)ccc3n2)cc1NC(=O)CC(C)(C)C` [Example 691, N-(2-ethyl-5-(6-(2-(trifluoromethyl)pyridin-3-yl)imidazo[1,2-b]pyridazin-2-yl)phenyl)-3,3-dimethylbutanamide], the values for the IC50 in assay [1] (setting [4]) and in assay [2] (setting [6]) were 1220 nM and 459 nM, respectively.

With `COc1ccccc1Oc1ccc2nc(-c3ccc(C(F)(F)F)c(NC(=O)C(C)(C)C)c3)cn2n1` [Example 197, N-(5-(6-(2-methoxyphenoxy)imidazo[1,2-b]pyridazin-2-yl)-2-(trifluoromethyl)phenyl)pivalamide], the IC50 in assay [1] (setting [4]) came to 875 nM; in assay [2] (setting [6]), 357 nM.

For `CC(=O)c1ccc(F)c(-c2ccc3nc(-c4ccc(C)c(NC(=O)C(C)(C)C)c4)cn3n2)c1` [compound 529], the IC50 was under 300 nM in assay [1] (setting [3]); 116 nM in assay [1] (setting [4]); 300 to 3000 nM in assay [2] (setting [5]); 197 nM in assay [2] (setting [6]); under 300 nM in assay [2] (setting [7]).
